For test [1], the target named is T1, human apelin receptor (APJ, AGTRL-1, APLNR) (Homo sapiens, UniProt P35414).
T1 construct: host or cells: Chinese hamster ovary cells
T1 sequence (P35414 1-380): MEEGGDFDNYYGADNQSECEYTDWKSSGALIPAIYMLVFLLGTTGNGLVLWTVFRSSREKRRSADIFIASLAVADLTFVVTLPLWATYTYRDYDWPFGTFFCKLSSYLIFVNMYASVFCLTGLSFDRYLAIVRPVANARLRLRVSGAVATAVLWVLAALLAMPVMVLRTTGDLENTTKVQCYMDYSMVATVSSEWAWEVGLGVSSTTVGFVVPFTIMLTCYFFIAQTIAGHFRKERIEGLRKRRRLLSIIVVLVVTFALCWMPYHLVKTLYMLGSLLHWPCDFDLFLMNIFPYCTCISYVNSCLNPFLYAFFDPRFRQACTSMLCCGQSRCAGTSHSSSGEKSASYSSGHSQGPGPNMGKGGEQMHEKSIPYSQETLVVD
Briefly: APJ cAMP cell-based assay (forskolin-stimulated CHO cells, enzyme fragment complementation). The note with it: for EC50: CHO cells expressing human APJ, forskolin-stimulated, 0.5 h incubation, 50% of control (apelin-13, 1 nM) response, read-out: APJ cAMP EC50; for Emax: CHO, 0.5 h, percentage of the maximal apelin-13 response at 1 nM (control), read-out: APJ cAMP % resp (efficacy).

The subject of the next test is vasopressin release. Particulars: intracerebral injection; cited from earlier work.
For test [2], the system named is abdominal aortic aneurysms. Particulars: mouse model of abdominal aortic aneurysms; cited from earlier work.

Usually EC50 stands for the concentration at which the effect is half-maximal.

Regarding `COc1ccccc1-n1c(-c2cccs2)cnc1OCc1csc(-c2ccccc2)n1` [Example 80], in test [1], the EC50 was over 10000 nM and the Emax was found to be 31%.
The like results for `COc1ccccc1-n1c(OCc2coc(-c3ccccc3)n2)nnc1-c1cccs1` [Example 81, 4-(2-Methoxy-phenyl)-3-(2-phenyl-oxazol-4-ylmethoxy)-5-thiophen-2-yl-4H-[1,2,4]triazole] were, in that order, 238 nM and 101%.
For `COc1ccccc1-n1c(OCc2ccccc2)nnc1-c1cccs1` [Example 82, 3-(benzyloxy)-4-(2-methoxyphenyl)-5-(thiophen-2-yl)-4H-1,2,4-triazole], in test [1], the EC50 was over 10000 nM and the Emax came to 52%.
On the same counts, the results for `COc1ccccc1-n1c(OCc2cc(=O)n3cc(C)ccc3n2)nnc1-c1cccs1` [Example 83, 2-(((4-(2-methoxyphenyl)-5-(thiophen-2-yl)-4H-1,2,4-triazol-3-yl)oxy)methyl)-7-methyl-4H-pyrido[1,2-a]pyrimidin-4-one] are 45 nM and 52%.
The like results for `COc1ccccc1-n1c(OCc2csc(-c3ccccc3)n2)nnc1-c1cccs1` [Example 84] were, in that order, 680 nM and 109%.
Regarding `COc1ccccc1-n1c(NCc2csc(-c3ccc(C)cc3)n2)nnc1-c1cccs1` [Example 86, [4-(2-Methoxy-phenyl)-5-thiophen-2-yl-4H-[1,2,4]triazol-3-yl]-(2-p-tolyl-thiazol-4-ylmethyl)-amine], the EC50 in test [1] is over 10000 nM.
The same measure, in the same setting: then `COc1ccccc1-n1c(NCc2coc(-c3ccc(C)cc3)n2)nnc1-c1cccs1` [Example 87, [4-(2-Methoxy-phenyl)-5-thiophen-2-yl-4H-[1,2,4]triazol-3-yl]-(2-p-tolyl-oxazol-4-ylmethyl)-amine], with over 10000 nM.
In the case of apelin, in the test on vasopressin release, the “reduction in plasma vasopressin concentrations” value is given as 40%. Besides, in test [2], the reduction of aneurysm is 50%.

These data come from patent US12319684B2 (Sanford Burnham Prebys Medical Discovery Institute, priority 2014, dated 2025).
